Source: patent US11970473B2, “Nootkatone derivatives and methods of using the same” (Arkansas State University—Jonesboro, priority 2021, dated 2024)
In brackets after ≈: the same amount, converted by molar mass.

Key:
CAKI-1 = experiment: NCI-60 cancer screen; assay type: cell-based, human; details: CAKI-1, Renal Cancer; 10 μM
UO-31 = experiment: NCI-60 cancer screen; assay type: cell-based, human; details: UO-31, Renal Cancer; 10 μM
HT29 = experiment: NCI-60 cancer screen; assay type: cell-based, human; details: HT29, Colon Cancer; 10 μM
SK-MEL-2 = experiment: NCI-60 cancer screen; assay type: cell-based, human; details: SK-MEL-2, Melanoma; 10 μM
K-562 = experiment: NCI-60 cancer screen; assay type: cell-based, human; details: K-562, Leukemia; 10 μM
SNB-19 = experiment: NCI-60 cancer screen; assay type: cell-based, human; details: SNB-19, CNS Cancer; 10 μM
OVCAR-3 = experiment: NCI-60 cancer screen; assay type: cell-based, human; details: OVCAR-3, Ovarian Cancer; 10 μM
HOP-92 = experiment: NCI-60 cancer screen; assay type: cell-based, human; details: HOP-92, Non-Small Cell Lung Cancer; 10 μM
786-0 = experiment: NCI-60 cancer screen; assay type: cell-based, human; details: 786-0, Renal Cancer; 10 μM
NCI-H522 = experiment: NCI-60 cancer screen; assay type: cell-based, human; details: NCI-H522, Non-Small Cell Lung Cancer; 10 μM
M14 = experiment: NCI-60 cancer screen; assay type: cell-based, human; details: M14, Melanoma; 10 μM
LOX IMVI = experiment: NCI-60 cancer screen; assay type: cell-based, human; details: Melanoma, 10 μM
RXF 393 = experiment: NCI-60 cancer screen; assay type: cell-based, human; details: RXF 393, Renal Cancer; 10 μM
CCRF-CEM = experiment: NCI-60 cancer screen; assay type: cell-based, human; details: Leukemia, 10 μM
HCC-2998 = experiment: NCI-60 cancer screen; assay type: cell-based, human; details: HCC-2998, Colon Cancer; 10 μM
MDA-MB-468 = experiment: NCI-60 cancer screen; assay type: cell-based, human; details: MDA-MB-468, Breast Cancer; 10 μM
NCI/ADR-RES = experiment: NCI-60 cancer screen; assay type: cell-based, human; details: Ovarian Cancer, 10 μM
NCI-60 cancer cell lines = experiment: NCI-60 cancer screen (whole panel); assay type: cell-based, human; details: 10 μM
T-47D = experiment: NCI-60 cancer screen; assay type: cell-based, human; details: Breast Cancer, 10 μM
DU-145 = experiment: NCI-60 cancer screen; assay type: cell-based, human; details: DU-145, Prostate Cancer; 10 μM
HCT-15 = experiment: NCI-60 cancer screen; assay type: cell-based, human; details: HCT-15, Colon Cancer; 10 μM
MDA-MB-231/ATCC = experiment: NCI-60 cancer screen; assay type: cell-based, human; details: Breast Cancer, 10 μM
SK-MEL-5 = experiment: NCI-60 cancer screen; assay type: cell-based, human; details: SK-MEL-5, Melanoma; 10 μM
SN12C = experiment: NCI-60 cancer screen; assay type: cell-based, human; details: Renal Cancer, 10 μM
NCI-H322M = experiment: NCI-60 cancer screen; assay type: cell-based, human; details: Non-Small Cell Lung Cancer, 10 μM
SK-OV-3 = experiment: NCI-60 cancer screen; assay type: cell-based, human; details: SK-OV-3, Ovarian Cancer; 10 μM
S. aureus strains = experiment: MIC, summary over S. aureus strains; assay type: cell-based; details: Staphylococcus aureus; lowest MIC over S. aureus strains; read-out: minimum inhibitory concentration (MIC) value as low as
Experimental: Minimal inhibitory concentration (MIC) assay The standard microdilution method recommended by the Clinical and Laboratory Standards Institute (CLSI) was used to determine the MIC of the antibiotics. The starting concentration of compounds was 50 μg/ml and 2-fold dilution was done down the 96 honeycomb well plate column. The MIC assay was conducted in triplicates.

PC-3 = experiment: NCI-60 cancer screen; assay type: cell-based, human; details: PC-3, Prostate Cancer; 10 μM
KM12 = experiment: NCI-60 cancer screen; assay type: cell-based, human; details: KM12, Colon Cancer; 10 μM
MCF7 = experiment: NCI-60 cancer screen; assay type: cell-based, human; details: MCF7, Breast Cancer; 10 μM
OVCAR-8 = experiment: NCI-60 cancer screen; assay type: cell-based, human; details: OVCAR-8, Ovarian Cancer; 10 μM
HL-60(TB) = experiment: NCI-60 cancer screen; assay type: cell-based, human; details: Leukemia, 10 μM
MOLT-4 = experiment: NCI-60 cancer screen; assay type: cell-based, human; details: MOLT-4, Leukemia; 10 μM
NCI-H23 = experiment: NCI-60 cancer screen; assay type: cell-based, human; details: NCI-H23, Non-Small Cell Lung Cancer; 10 μM
HCT-116 = experiment: NCI-60 cancer screen; assay type: cell-based, human; details: HCT-116, Colon Cancer; 10 μM

## C=C(C)[C@@H]1CC=C2c3sc(-c4ccc(O)cc4)nc3C[C@@H](C)[C@]2(C)C1 [Compound 15, 4-[(5R,5aS,7R)-7-isopropenyl-5,5a-dimethyl-5,6,7,8-tetrahydro-4H-benzo[g][1,3]benzothiazol-2-yl]phenol]
CAKI-1
  Growth Percent: 99.88%
UO-31
  Growth Percent: 88.19%
HT29
  Growth Percent: 105.86%
SK-MEL-2
  Growth Percent: 104.08%
K-562
  Growth Percent: 92.07%
SNB-19
  Growth Percent: 93.47%
OVCAR-3
  Growth Percent: 102.89%
HOP-92
  Growth Percent: 96.54%
786-0
  Growth Percent: 101.31%
NCI-H522
  Growth Percent: 92.28%
M14
  Growth Percent: 98.96%
LOX IMVI
  Growth Percent: 101.88%
RXF 393
  Growth Percent: 113.93%
CCRF-CEM
  Growth Percent: 99.49%
HCC-2998
  Growth Percent: 100.46%
MDA-MB-468
  Growth Percent: 102.12%
NCI/ADR-RES
  Growth Percent: 105.66%
NCI-60 cancer cell lines; delta over panel
  Growth Percent, Delta: 16.54%
NCI-60 cancer cell lines; mean over panel
  Growth Percent, Mean: 100.94%
NCI-60 cancer cell lines; range over panel
  Growth Percent, Range: 34.01%
T-47D
  Growth Percent: 84.40%
DU-145
  Growth Percent: 104.97%
HCT-15
  Growth Percent: 100.28%
MDA-MB-231/ATCC
  Growth Percent: 101.25%
SK-MEL-5
  Growth Percent: 99.11%
SN12C
  Growth Percent: 94.92%
NCI-H322M
  Growth Percent: 102.27%
SK-OV-3
  Growth Percent: 109.13%
S. aureus strains
  MIC: 6.25 µg/mL (≈ 17.8 µM)
PC-3
  Growth Percent: 94.38%
KM12
  Growth Percent: 103.49%
MCF7
  Growth Percent: 89.98%
OVCAR-8
  Growth Percent: 98.85%
HL-60(TB)
  Growth Percent: 100.82%
MOLT-4
  Growth Percent: 105.32%
NCI-H23
  Growth Percent: 94.71%
HCT-116
  Growth Percent: 114.01%
